Laboratory results: paper PMC9327782, “Benzoxazole derivatives as new VEGFR-2 inhibitors and apoptosis inducers: design, synthesis, in silico studies, and antiproliferative evaluation” (Journal of Enzyme Inhibition and Medicinal Chemistry, 2022)
Like-named read-outs stand apart in the source and are kept apart here.

Assays:
HepG2 cell line = test: In vitro anti-proliferative MTT assay, HepG2; assay type: cell-based, human
From the text: (§1) The cytotoxicity results were obtained as median growth inhibitory concentration (IC50).
(§2) MTT assay protocol. This method was applied in accordance with the comprehensive description in Supplementary data. […]
(§3) 5 Raw data of cytotoxity and VEGFR -2 assay […]
(§4) Experimental of biological testing
(§5) 1. In vitro anti-proliferative activity
(§6) MTT assay protocol was applied to assess the anti-proliferative activity of the synthesized compounds. Two human cancer cell lines (MCF-7 and HepG-2) and one normal cell line (WI-38) were used in this test. At first, the cell lines were cultured in RPMI -1640 medium with 10% fetal bovine serum. Antibiotics (100 units/ml penicillin and100 µg/ml streptomycin ) were added at 37 °C in a 5% CO2 incubator. The cell lines were seeded in a 96-well plate at a density of 1.0 x 10^4 cells / well at 37 °C for 24 h under 5% CO2. After incubation, the cells were treated with different […]
(§7) concentration of the synthesized compounds and incubated for 24 h. After 24 h of drug treatment, 20 µl of MTT solution at 5mg/ml was added and incubated for 4 h. Dimethyl sulfoxide (DMSO) in volume of 100 µl was added into each well to dissolve the purple formazan formed. The colorimetric assay was measured and recorded at absorbance of 570 nm using a plate reader (EXL 800, USA). The relative cell viability in percentage was calculated as (A570 of treated samples/A570 of untreated sample) X 100. […]

MCF-7 cell line = test: In vitro anti-proliferative MTT assay, MCF-7; assay type: cell-based, human
From the text: as §1, §2, §3, §4, §5, §6, §7

VEGFR-2 = molecular target: T1, VEGFR-2 (Homo sapiens, UniProt P35968); test: In vitro VEGFR-2 kinase assay (ELISA kit); assay type: biochemical; conditions: for IC50: ELISA kit; for HillSlope best-fit value, VEGFR-2 / LogIC50 best-fit value, VEGFR-2: supplement raw data, curve fit
T1 construct: purchased
T1 sequence (P35968 20-1356): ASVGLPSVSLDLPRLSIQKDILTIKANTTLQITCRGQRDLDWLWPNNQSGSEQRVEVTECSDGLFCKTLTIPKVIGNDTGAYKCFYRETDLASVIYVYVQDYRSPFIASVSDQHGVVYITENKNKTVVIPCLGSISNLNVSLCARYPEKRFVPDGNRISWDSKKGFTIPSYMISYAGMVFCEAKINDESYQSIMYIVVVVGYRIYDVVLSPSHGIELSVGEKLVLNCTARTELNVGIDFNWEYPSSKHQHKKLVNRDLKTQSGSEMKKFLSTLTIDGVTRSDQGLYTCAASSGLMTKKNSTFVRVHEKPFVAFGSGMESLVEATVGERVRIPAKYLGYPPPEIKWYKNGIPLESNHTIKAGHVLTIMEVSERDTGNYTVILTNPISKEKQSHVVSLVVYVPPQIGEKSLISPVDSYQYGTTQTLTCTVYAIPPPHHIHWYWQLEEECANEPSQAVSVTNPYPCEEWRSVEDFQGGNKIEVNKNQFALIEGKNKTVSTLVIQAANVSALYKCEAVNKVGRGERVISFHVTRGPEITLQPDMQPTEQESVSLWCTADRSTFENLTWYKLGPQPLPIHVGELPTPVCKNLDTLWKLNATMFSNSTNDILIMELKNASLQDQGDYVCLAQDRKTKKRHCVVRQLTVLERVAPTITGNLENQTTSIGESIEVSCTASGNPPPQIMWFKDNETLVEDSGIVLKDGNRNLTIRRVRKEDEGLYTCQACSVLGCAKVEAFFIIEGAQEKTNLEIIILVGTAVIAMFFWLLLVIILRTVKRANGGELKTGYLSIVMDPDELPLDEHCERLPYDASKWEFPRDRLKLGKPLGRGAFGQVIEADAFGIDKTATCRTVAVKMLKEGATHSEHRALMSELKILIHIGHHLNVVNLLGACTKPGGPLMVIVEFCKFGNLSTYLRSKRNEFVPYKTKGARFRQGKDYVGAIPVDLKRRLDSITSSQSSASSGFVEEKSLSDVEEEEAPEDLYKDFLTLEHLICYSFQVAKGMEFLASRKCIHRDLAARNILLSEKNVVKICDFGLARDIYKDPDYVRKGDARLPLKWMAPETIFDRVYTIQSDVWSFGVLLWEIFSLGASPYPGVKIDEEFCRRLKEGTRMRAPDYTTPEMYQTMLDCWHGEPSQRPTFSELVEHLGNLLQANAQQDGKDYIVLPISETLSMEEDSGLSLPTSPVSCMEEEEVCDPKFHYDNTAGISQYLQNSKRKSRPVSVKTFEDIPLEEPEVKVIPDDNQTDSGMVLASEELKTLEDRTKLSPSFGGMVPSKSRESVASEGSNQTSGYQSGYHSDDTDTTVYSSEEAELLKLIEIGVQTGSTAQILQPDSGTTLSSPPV
Method: The assay was applied by ELISA kits in accordance with the comprehensive description in[18]^,[33] as described in Supplementary data. […]
2. In vitro VEGFR-2 kinase assay
All the synthesized compounds were tested for its inhibitory activity against VEGFR-2. Human VEGFR-2 ELISA kit (Enzyme-Linked Immunosorbent Assay) was utilized in this test. At first, specific antibody for VEGFR-2 was seeded on a 96-well plate and 100 μL of the standard solution or the tested compound was added, all were incubated at room temperature for 2.5 h. Then washed, 100 μL of the prepared biotin antibody was added, then incubated at room temperature for additional 1 h. and washed. Then, 100 μL of streptavidin solution was added and incubated for 45 min. at room temperature. Washed again, 100 μL of TMB Substrate reagent was added and incubated for 30 min. at room temperature. 50 μL of the stop solution was added, then read at 450 […]
nm immediately. […]

WI-38 cell line = test: In vitro cytotoxicity against normal cell line (MTT); assay type: cell-based, human; parameters: LogIC50 best-fit value, WI-38: unit not given here; conditions: for IC50: WI-38, normal human lung cell line, MTT; for HillSlope best-fit value, WI-38 / LogIC50 best-fit value, WI-38: supplement raw data, dose-response curve fit
From the text: […]. Such values were very high in comparison to the corresponding values on cancer cell lines, which reflect high safety profile of the tested candidates towards normal cell lines.
as §2, §3, §4, §5, §6, §7

[1] = Homo sapiens, HepG2, 24 h, MTT, 24 h treatment, mean of three experiments, read-out: In vitro IC50 HepG2
[2] = Homo sapiens, HepG2, supplement raw data, dose-response curve fit, read-out: LogIC50 best-fit value, HepG2 (converted)
[3] = Homo sapiens, MCF7, 24 h, MTT, 24 h treatment, mean of three experiments, read-out: In vitro IC50 MCF-7
[4] = Homo sapiens, MCF7, supplement raw data, dose-response curve fit, read-out: LogIC50 best-fit value, MCF-7 (converted)
[5] = Homo sapiens, HepG2, supplement raw data, dose-response curve fit, read-out: IC50 best-fit value, HepG2

Compound	IC50 (HepG2 cell line; [1]) [µM]	IC50 (HepG2 cell line; [2]) [µM]	IC50 (MCF-7 cell line; [3]) [µM]	IC50 (MCF-7 cell line; [4]) [µM]	IC50 (HepG2 cell line; MTT, 24 h treatment, mean of three experiments, read-out: In vitro IC50 HepG2) [µM]	IC50 (MCF-7 cell line; MTT, 24 h treatment, mean of three experiments, read-out: In vitro IC50 MCF-7) [µM]	IC50 (VEGFR-2) [µM]	HillSlope best-fit value, VEGFR-2 (VEGFR-2)	LogIC50 best-fit value, VEGFR-2 (VEGFR-2)	IC50 (WI-38 cell line) [µM]	HillSlope best-fit value, WI-38 (WI-38 cell line)	LogIC50 best-fit value, WI-38 (WI-38 cell line)	IC50 (HepG2 cell line; [5]) [µM]	IC50 (MCF-7 cell line; Homo sapiens, MCF7, supplement raw data, dose-response curve fit, read-out: IC50 best-fit value, MCF-7) [µM]
O=C(CSc1nc2ccccc2o1)Nc1ccc(C(=O)NC2CCCC2)cc1 [Compound 12a, 4–(2-(Benzo[d]oxazol-2-ylthio)acetamido)-N-cyclopentylbenzamide]	38.8 ± 3.2	38.8	33.3 ± 2.9	33.3										
O=C(CSc1nc2cc(Cl)ccc2o1)Nc1ccc(C(=O)NC2CCCC2)cc1 [Compound 12b, 4–(2-((5-Chlorobenzo[d]oxazol-2-yl)thio)acetamido)-N-cyclopentylbenzamide]	64.2 ± 6.1	64.1	77 ± 7.3	77.1										
O=C(CSc1nc2ccccc2o1)Nc1ccc(C(=O)Nc2cccc(Cl)c2)cc1 [Compound 12j, 4–(2-(Benzo[d]oxazol-2-ylthio)acetamido)-N-(3-chlorophenyl)benzamide]	33.6	50.9	50.9	33.6	50.9 ± 4.6	33.6 ± 2.8								
O=C(CSc1nc2ccccc2o1)Nc1ccc(C(=O)NNC(=O)c2cccc(Cl)c2)cc1 [Compound 13a, 2-(Benzo[d]oxazol-2-ylthio)-N-(4–(2-(3-chlorobenzoyl)hydrazine-1-carbonyl)phenyl)-acetamide]		25.5		32.4			0.268	-0.5089	2.428 Log (nM)					
Cc1ccc2oc(SCC(=O)Nc3ccc(C(=O)NC4CCCC4)cc3)nc2c1 [Compound 12c, N-Cyclopentyl-4–(2-((5-methylbenzo[d]oxazol-2-yl)thio)acetamido)benzamide]	74.3 ± 6.8	74.3	36.7 ± 3.3	36.7										
CC(C)(C)NC(=O)c1ccc(NC(=O)CSc2nc3cc(Cl)ccc3o2)cc1 [Compound 12e, N-(Tert-butyl)-4–(2-((5-chlorobenzo[d]oxazol-2-yl)thio)acetamido)benzamide]	71.6 ± 6.7	71.6	62.3 ± 5.8	62.2										
COc1cccc(NC(=O)c2ccc(NC(=O)CSc3nc4cc(C)ccc4o3)cc2)c1 [Compound 12i, N-(3-Methoxyphenyl)-4–(2-((5-methylbenzo[d]oxazol-2-yl)thio)acetamido)benzamide]	27.3 ± 2.2	27.3	28 ± 2.1	28			0.155	-0.3818	2.190 Log (nM)	76.8	-0.4944	1.885		
Cc1ccc2oc(SCC(=O)Nc3ccc(C(=O)NC(C)(C)C)cc3)nc2c1 [Compound 12f, N-(Tert-butyl)-4–(2-((5-methylbenzo[d]oxazol-2-yl)thio)acetamido)benzamide]	37 ± 3.4	37	22.5 ± 1.8	22.5			0.265	-0.3283	2.423 Log (nM)					
COc1cccc(NC(=O)c2ccc(NC(=O)CSc3nc4cc(Cl)ccc4o3)cc2)c1 [Compound 12h, 4–(2-((5-Chlorobenzo[d]oxazol-2-yl)thio)acetamido)-N-(3-methoxyphenyl)benzamide]	102 ± 8.5	102	85.6 ± 8.2	85.7										
CNC(=O)c1cc(Oc2ccc(NC(=O)Nc3ccc(Cl)c(C(F)(F)F)c3)cc2)ccn1 [Sorafenib, sorafenib, reference compound]	5.57 ± 0.4	5.57	6.46 ± 0.3	6.46						22.1	-0.4247	1.344	5.57	6.46
Cc1ccc2oc(SCC(=O)Nc3ccc(C(=O)NNC(=O)c4cccc(Cl)c4)cc3)nc2c1 [Compound 13c, N-(4–(2-(3-Chlorobenzoyl)hydrazine-1-carbonyl)phenyl)-2-((5-methylbenzo[d]oxazol-2-yl)thio)acetamide]	24.2 ± 2.1	24.4	53.1 ± 3.7	53.1									24.4	
COc1cccc(NC(=O)c2ccc(NC(=O)CSc3nc4ccccc4o3)cc2)c1 [Compound 12g, 4–(2-(Benzo[d]oxazol-2-ylthio)acetamido)-N-(3-methoxyphenyl)benzamide]	36.7 ± 2.9	36.6	53 ± 5.1	53										
O=C(CSc1nc2cc(Cl)ccc2o1)Nc1ccc(C(=O)Nc2cccc(Cl)c2)cc1 [Compound 12k, 4–(2-((5-Chlorobenzo[d]oxazol-2-yl)thio)acetamido)-N-(3-chlorophenyl)benzamide]	28.4 ± 2.5	28.4	86.6 ± 7.8	86.7										
O=C(CSc1nc2cc(Cl)ccc2o1)Nc1ccc(C(=O)NNC(=O)c2cccc(Cl)c2)cc1 [Compound 13b, 2-((5-Chlorobenzo[d]oxazol-2-yl)thio)-N-(4–(2-(3-chlorobenzoyl)hydrazine-1-carbonyl)-phenyl)acetamide]	42.1 ± 3.8	42.1	26.3 ± 2.2	26.3										
CC(C)(C)NC(=O)c1ccc(NC(=O)CSc2nc3ccccc3o2)cc1 [Compound 12d, 4–(2-(Benzo[d]oxazol-2-ylthio)acetamido)-N-(tert-butyl)benzamide]	23.6 ± 2.1	23.6	44.1 ± 3.8	44.1			0.195	-0.4166	2.289 Log (nM)	99.4	-0.3751	1.997		
